Laboratory results published in patent US20100298381A1, “GAMMA SECRETASE MODULATORS” (Schering Corporation, priority 2007, published 2010).

Key:
[1] = test system: total Aβ in HEK293 cells overexpressing APP with Swedish and London mutations; assay: Secretase reaction and Aβ analysis in whole cells, total Aβ (ECL sandwich immunoassay); type: cell-based; details: Homo sapiens, 5 hour at 37° C.
Procedure: (§1) Secretase Reaction and Aβ Analysis in Whole Cells: HEK293 cells overexpressing APP with Swedish and London mutations were treated with the specified compounds for 5 hour at 37° C. in […] of DMEM medium containing 10% fetal bovine serum. At the end of the incubation, total Aβ, Aβ40 and Aβ42 were measured using electrochemiluminescence (ECL) based sandwich immunoassays. Total Aβ was determined using a pair of antibodies TAG-WO2 and biotin-4G8, Aβ40 was identified with antibody pairs TAG-G2-10 and biotin-4G8, while Aβ42 was identified with TAG-G2-11 and biotin-4G8. The ECL signal was measured using Sector Imager 2400 (Meso Scale Discovery).

[2] = test system: Aβ42 in HEK293 cells overexpressing APP with Swedish and London mutations; assay: Secretase reaction and Aβ analysis in whole cells, Aβ42 (ECL sandwich immunoassay); type: cell-based; details: Homo sapiens, 5 hour at 37° C.
Procedure: as §1

Row | SMILES | IC50 [1] [nM] | IC50 [2] [nM]
1 | CC/N=C1\N/C(=C\c2ccc(-n3cnc(C)c3)c(OC)c2)C(=O)N1Cc1ccc(F)cc1 [Example B2] | 778 to 20000 | 46 to 94
2 | CCCC/N=C1\N/C(=C\c2ccc(-n3cnc(C)c3)c(OC)c2)C(=O)N1[C@H](C)c1ccc(F)cc1 [Example B14] | 778 to 20000 | 46 to 94
3 | COc1cc(/C=C2\N/C(=N\CCO)N(Cc3cc(F)c(F)c(F)c3)C2=O)ccc1-n1cnc(C)c1 [Example A9u] | 778 to 20000 | 46 to 94
4 | CC/N=C1\N/C(=C\c2ccc(-n3cnc(C)c3)c(OC)c2)C(=O)N1[C@H](C)c1ccc(F)cc1 [Example A9m] | 778 to 20000 | 46 to 94
5 | CCCC/N=C1\N/C(=C\c2ccc(-n3cnc(C)c3)c(OC)c2)C(=O)N1Cc1ccc(F)cc1 [Example B5] | 778 to 20000 | 46 to 94
6 | COc1cc(/C=C2\N/C(=N\CC3CC3)N(C(C)c3cc(F)c(F)c(F)c3)C2=O)ccc1-n1cnc(C)c1 (centres unmarked) [Example B12] | 778 to 20000 | 46 to 94
7 | COc1cc(/C=C2\N/C(=N\CC3CC3)N(Cc3cc(F)c(F)c(F)c3)C2=O)ccc1-n1cnc(C)c1 [Example A9r] | 778 to 20000 | 46 to 94
8 | CC/N=C1\N/C(=C\c2ccc(-n3cnc(C)c3)c(OC)c2)C(=O)N1C(C)c1cc(F)c(F)c(F)c1 (centres unmarked) [Example B8] | 778 to 20000 | 46 to 94
9 | COc1cc(/C=C2\N/C(=N\CC(F)(F)F)N([C@H](C)c3ccc(F)cc3)C2=O)ccc1-n1cnc(C)c1 [Example B18] | 778 to 20000 | 46 to 94
10 | COc1cc(/C=C2\N/C(=N\CC(F)(F)F)N(Cc3cc(F)c(F)c(F)c3)C2=O)ccc1-n1cnc(C)c1 [Example B23] | 778 to 20000 | 46 to 94
11 | COc1cc(/C=C2\N/C(=N\CCO)N(C(C)c3cc(F)c(F)c(F)c3)C2=O)ccc1-n1cnc(C)c1 (centres unmarked) [Example B10] | 778 to 20000 | 46 to 94
12 | CC/N=C1\N/C(=C\c2ccc(-n3cnc(C)c3)c(OC)c2)C(=O)N1Cc1cc(F)c(F)c(F)c1 [Example A9t] | 778 to 20000 | 46 to 94
13 | CCCC/N=C1\N/C(=C\c2ccc(-n3cnc(C)c3)c(OC)c2)C(=O)N1C(C)c1cc(F)c(F)c(F)c1 (centres unmarked) [Example B11] | 778 to 20000 | 46 to 94
14 | COc1cc(/C=C2\NC(=N)N(C(C)c3cc(F)c(F)c(F)c3)C2=O)ccc1-n1cnc(C)c1 (centres unmarked) [Example B7] | 778 to 20000 | 46 to 94
15 | COc1cc(/C=C2\N/C(=N\CCO)N([C@H](C)c3ccc(F)cc3)C2=O)ccc1-n1cnc(C)c1 [Example B15] | 778 to 20000 | 46 to 94
16 | CCCC/N=C1\N/C(=C\c2ccc(-n3cnc(C)c3)c(OC)c2)C(=O)N1Cc1cc(F)c(F)c(F)c1 [Example B22] | 778 to 20000 | 46 to 94
17 | COc1cc(/C=C2\N/C(=N\CC3CC3)N(Cc3ccc(F)cc3)C2=O)ccc1-n1cnc(C)c1 [Example B6] | 778 to 20000 | 46 to 94
18 | COc1cc(/C=C2\NC(=N)N([C@H](C)c3ccc(F)cc3)C2=O)ccc1-n1cnc(C)c1 [Example B13] | 778 to 20000 | 46 to 94
19 | COc1cc(/C=C2\N/C(=N\CCO)N(Cc3ccc(F)cc3)C2=O)ccc1-n1cnc(C)c1 [Example B4] | 778 to 20000 | 46 to 94
